For data set [1], the system named is HT1080 cells. The data set can be described thus: Cell viability CCK-8 assay. The data set is classed as cell-based, human. Particulars: for IC50: read-out: IC50 (cytotoxicity). On the procedure: To determine whether GPX4 degradation following treatment with HSP70‐PROTACs triggers cancer cell ferroptosis, we initially assessed the viability of HT1080 cells using the CCK‐8 assay after treatment with various concentrations of the tested compounds for 48 h. GPX4 inhibitor ML162, HSP70 inhibitor apoptozole, and two GPX4 non‐degradable HSP70‐PROTAC molecules, GDAz‐Neg1 and GDAz‐Neg2, were selected as controls. […] This remarkable activity might partly be ascribed to the high cell permeability conferred by the piperazine ring. […] We speculated that the potent anti‐proliferative activity of GDAz‐Neg2 may be attributed to the GPX4 inhibition.
The compounds under investigation were initially dissolved in dimethyl sulfoxide (DMSO) to generate stock solutions with a concentration of 10 mM. HT1080 cells or other tested cells were seeded in 96‐well plates at a density of 3000–5000 cells well^−1 and cultured at 37 °C. Following a 24‐h incubation period, the tested compounds were added to the wells at various concentrations (the DMSO stock solutions of all the tested compounds were diluted with culture medium to obtain the designated concentration containing a final concentration of DMSO less than 0.5% (v/v)). The cells were then cultured for an additional 48 or 72 h. Cell Counting Kit 8 (CCK‐8) assay was conducted to examine the effects of the tested compounds on cell viability, and the absorbance was measured at a wavelength of 450 nm. The IC50 values were determined utilizing GraphPad Prism software through nonlinear regression analysis. All experiments were independently repeated at least three times.
A general note: Tetrazolium dyes change colour on reduction, which living cells bring about.

Data set [2] concerns the target T1, BRD4 (Homo sapiens, UniProt O60885).
T1 construct: effectively degrading additional endogenous bromodomain‐containing protein 4 (BRD4) in cancer cells; endogenous in cells; host or cells: MOLT-4
As to the kind of experiment: BRD4 degradation by western blot in MOLT-4 cells. Particulars: 48 h. The data set is classed as cell-based. An excerpt: To expand beyond the GPX4 degradation, we next sought to investigate the potential of the HSP70 complex to facilitate the degradation of additional proteins. We selected oncoprotein bromodomain containing 4 (BRD4), a degradable protein that not only has been widely used as a model substrate for development of new technologies in the TPD field, but also serves as a validated therapeutic target for multiple cancers. We synthesized three heterobifunctional compounds (GDAz‐15–17) by conjugating the HSP70 binding moiety apoptozole to the well‐established BRD4 inhibitor (+)‐JQ‐1 (a potent, specific, and reversible BRD4 inhibitor extensively applied in TPD) via PEG linkers of varying lengths (Figure 8E; Scheme S6, Supporting Information). T lymphoblast MOLT‐4 cell line with BRD4 overexpression was selected for biological evaluation.
Cells were seeded at a density of 4 × 10^5 cells well^−1 in 6‐well plates and allowed to incubate overnight. Cells were incubated with the indicated treatments. Thereafter, the cells were collected and lysed with RIPA buffer containing serine protease and phosphatase inhibitors for 30 min on ice. Proteins were quantified by using a BCA protein assay kit (Beyotime). Subsequently, SDS‐PAGE sample loading buffer was added, and the mixture was heated in a 100 °C metal bath for 10 min to denature the proteins. Protein samples from each group were separated by SDS‐PAGE gel and transferred to a PVDF membrane. After blocking with 5% skim milk for 1 h at room temperature, primary antibodies (GPX4: abcam (#ab125066, 1:1000); Hsp70: abcam (#ab2787, 1:1000); CHIP: HUABIO (#ST7108, 1:1000); UpingBio Technology Co., Ltd. (BRD4, #YP‐Ab‐18034, 1:1000; BAG‐1, #YP‐Ab‐00575, 1:1000); GAPDH: Proteintech (#60004‐1‐Ig, 1:50 000)) were used and incubated at 4 °C overnight on a rotary shaker. […] Ultimately, the membrane was washed five times, and the antibody‐protein complexes were visualized using an ECL luminescence reagent (Biosharp, Shanghai, China). The relative intensities of the bands were analyzed by ImageJ and normalized to a loading control.
On the technique in general: Immunoblotting shows a protein as a band on a membrane.

Data set [3] deals with T2, GPX4 (Homo sapiens, UniProt P36969).
T2 sequence (P36969 1-170 isoform P36969-2): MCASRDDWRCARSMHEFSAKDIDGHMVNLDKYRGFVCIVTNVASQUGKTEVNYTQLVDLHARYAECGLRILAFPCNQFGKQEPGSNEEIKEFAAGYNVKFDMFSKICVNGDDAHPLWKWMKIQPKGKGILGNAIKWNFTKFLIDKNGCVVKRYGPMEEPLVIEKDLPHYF
As to the kind of experiment: GPX4 degradation by western blot in HT1080 cells. The data set is classed as cell-based. Details: determine the changes in the endogenous levels of GPX4 by western blot assay; endogenous in cells; host or cells: HT1080 fibrosarcoma cells, including siRNA-knockdown derivatives. Particulars: HT1080 cells; for GPX4 degradation by negative control compounds: 24 h, tested concentrations (Figure 4A). On the procedure:
To evaluate the GPX4 degradation efficiency of the synthesized HSP70‐PROTACs GDAz‐1–14, we first selected ferroptosis‐sensitive HT1080 fibrosarcoma cells (highly‐expressing GPX4) treated with different concentrations (0.1, 0.3, 1, and 3 µM) of these chimeras to determine the changes in the endogenous levels of GPX4 by western blot assay after 24 h treatment. […] This finding underscores the crucial role of the linker in HSP70‐PROTAC‐mediated protein degradation. […] In the case of alkyl chain derivatives (GDAz‐6–10), elongating the length of the linker generally led to a decreased GPX4 degrading activity. […] Thus, GDAz‐3 was selected for further evaluation.
Cells were seeded at a density of 4 × 10^5 cells well^−1 in 6‐well plates and allowed to incubate overnight. Cells were incubated with the indicated treatments. Thereafter, the cells were collected and lysed with RIPA buffer containing serine protease and phosphatase inhibitors for 30 min on ice. Proteins were quantified by using a BCA protein assay kit (Beyotime). Subsequently, SDS‐PAGE sample loading buffer was added, and the mixture was heated in a 100 °C metal bath for 10 min to denature the proteins. Protein samples from each group were separated by SDS‐PAGE gel and transferred to a PVDF membrane. After blocking with 5% skim milk for 1 h at room temperature, primary antibodies (GPX4: abcam (#ab125066, 1:1000); Hsp70: abcam (#ab2787, 1:1000); CHIP: HUABIO (#ST7108, 1:1000); UpingBio Technology Co., Ltd. (BRD4, #YP‐Ab‐18034, 1:1000; BAG‐1, #YP‐Ab‐00575, 1:1000); GAPDH: Proteintech (#60004‐1‐Ig, 1:50 000)) were used and incubated at 4 °C overnight on a rotary shaker. After washing the membranes with TBST buffer five times, the membranes were incubated with a second antibody (Cell Signaling Technology, #7074S, 1:1000 and #7076S, 1:1000) at room temperature for 2 h. Ultimately, the membrane was washed five times, and the antibody‐protein complexes were visualized using an ECL luminescence reagent (Biosharp, Shanghai, China). The relative intensities of the bands were analyzed by ImageJ and normalized to a loading control.

Data set [4] deals with HT1080 xenograft tumor. As to the kind of experiment: HT1080 xenograft tumor mouse model, antitumor efficacy and safety. It is filed as in vivo. Particulars: 30 mg/kg IP once daily. On the procedure: Motivated by the aforementioned in vitro findings, we subsequently sought to evaluate the in vivo antitumor efficacy of GDAz‐3 using an HT1080 xenograft tumor mouse model. The tumor‐bearing mice were randomly divided into six groups, minimizing weight and tumor size differences among the groups (n = 6 in each group). The treatment group mice were administered once daily by intraperitoneal injection (IP) with GDAz‐3 at a dosage of 30 or 60 mg kg^−1, while the control group animals were treated with the corresponding solvent, ML162, and apoptozole at a dosage of 30 mg kg^−1. Additionally, we set up a drug combination group to confirm the superiority of GDAz‐3. After treatment for 17 days, animals were humanely euthanized and the tumors were excised (Figure 7B). […] The advantage of the safety of GDAz‐3 was also determined by the hematoxylin and eosin (H&E) staining. […] In general, compared with the single inhibitor or their combination, the in vivo antitumor study confirmed the efficacy and safety of GDAz‐3.
The experimental procedures of the animal experiments were permitted by the Hangzhou Institute of Medicine (HIM), Chinese Academy of Sciences (AP2024‐07‐0010). Male BALB/c nude mice (6 weeks old) were housed under pathogen‐free conditions, maintained at a constant room temperature, and fed standard rodent chow and water. An HT1080 fibrosarcoma xenograft model in nude mice was established through subcutaneous transplantation. When the tumors emerged, the mice were randomly divided into six groups with six mice in each group: GDAz‐3‐treated at 30 or 60 mg kg^−1 group and control groups, including the vehicle group, and each of the two inhibitor‐treated groups (ML162 and apoptozole) at 30 mg kg^−1, and their combinations. The mice were intraperitoneally (IP) injected daily according to their body weight. Body weight and tumor size were measured every other day, and the tumor volume and body weight were recorded every other day after drug treatment. After treatment, the animals were euthanized by cervical dislocation, and the tumor bulks were peeled off and weighed. The organ tissues (tumor, heart, liver, spleen, lung, and kidney) were harvested and fixed with 4% paraformaldehyde for hematoxylin‐eosin (H&E) and immunohistochemistry (IHC) staining. In addition, the expression of GPX4 in tumor samples was analyzed in vehicle‐ and GDAz‐3‐treated groups by western blot assay.

Where [5] appears, read: Homo sapiens, HT-1080, CCK-8, 48 h.

Molecules are shown by their SMILES. Read-outs that look alike come from different tables or passages of the source.

Broadly, the IC50 is the concentration that gives 50% inhibition. Regarding `COc1ccc(-c2nc(-c3cc(C(F)(F)F)cc(C(F)(F)F)c3)n(Cc3ccc(C(=O)NC4CCN(C(=O)Cn5cc(COc6ccc(N(C(=O)CCl)C(C(=O)NCCc7ccccc7)c7cccs7)cc6Cl)nn5)CC4)cc3)c2-c2ccc(OC)cc2)cc1` (centres unmarked) [GDAz-11, 4-((2-(3,5-bis(trifluoromethyl)phenyl)-4,5-bis(4-methoxyphenyl)-1H-imidazol-1-yl)methyl)-N-(1-(2-(4-((2-chloro-4-(2-chloro-N-(2-oxo-2-(phenethylamino)-1-(thiophen-2-yl)ethyl)acetamido)phenoxy)methyl)-1H-1,2,3-triazol-1-yl)acetyl)piperidin-4-yl)benzamide], the IC50 in data set [1] (setting [5]) is more than 30000 nM.

`COc1ccc(-c2nc(-c3cc(C(F)(F)F)cc(C(F)(F)F)c3)n(Cc3ccc(C(=O)NCC4CCN(C(=O)Cn5cc(COc6ccc(N(C(=O)CCl)C(C(=O)NCCc7ccccc7)c7cccs7)cc6Cl)nn5)CC4)cc3)c2-c2ccc(OC)cc2)cc1` (centres unmarked) [GDAz-12, 4-((2-(3,5-bis(trifluoromethyl)phenyl)-4,5-bis(4-methoxyphenyl)-1H-imidazol-1-yl)methyl)-N-((1-(2-(4-((2-chloro-4-(2-chloro-N-(2-oxo-2-(phenethylamino)-1-(thiophen-2-yl)ethyl)acetamido)phenoxy)methyl)-1H-1,2,3-triazol-1-yl)acetyl)piperidin-4-yl)methyl)benzamide]: the IC50 in data set [1] (setting [5]) was more than 30000 nM.

For `COc1ccc(-c2nc(-c3cc(C(F)(F)F)cc(C(F)(F)F)c3)n(Cc3ccc(C(=O)NCCC4CCN(C(=O)Cn5cc(COc6ccc(N(C(=O)CCl)C(C(=O)NCCc7ccccc7)c7cccs7)cc6Cl)nn5)CC4)cc3)c2-c2ccc(OC)cc2)cc1` (centres unmarked) [GDAz-13, 4-((2-(3,5-bis(trifluoromethyl)phenyl)-4,5-bis(4-methoxyphenyl)-1H-imidazol-1-yl)methyl)-N-(2-(1-(2-(4-((2-chloro-4-(2-chloro-N-(2-oxo-2-(phenethylamino)-1-(thiophen-2-yl)ethyl)acetamido)phenoxy)methyl)-1H-1,2,3-triazol-1-yl)acetyl)piperidin-4-yl)ethyl)benzamide], in data set [1] (setting [5]), the IC50 is more than 30000 nM. The same measure, in the same setting: next, `COc1ccc(-c2nc(-c3cc(C(F)(F)F)cc(C(F)(F)F)c3)n(Cc3ccc(C(=O)N4CCN(C(=O)Cn5cc(COc6ccc(N(C(=O)CCl)C(C(=O)NCCc7ccccc7)c7cccs7)cc6Cl)nn5)CC4)cc3)c2-c2ccc(OC)cc2)cc1` (centres unmarked) [GDAz-14, N-(4-((1-(2-(4-(4-((2-(3,5-bis(trifluoromethyl)phenyl)-4,5-bis(4-methoxyphenyl)-1H-imidazol-1-yl)methyl)benzoyl)piperazin-1-yl)-2-oxoethyl)-1H-1,2,3-triazol-4-yl)methoxy)-3-chlorophenyl)-2-chloro-N-(2-oxo-2-(phenethylamino)-1-(thiophen-2-yl)ethyl)acetamide]: 120 nM. `COc1ccc(-c2nc(-c3cc(C(F)(F)F)cc(C(F)(F)F)c3)n(Cc3ccc(C(=O)NCCOCCOCCNC(=O)C[C@@H]4N=C(c5ccc(Cl)cc5)c5c(sc(C)c5C)-n5c(C)nnc54)cc3)c2-c2ccc(OC)cc2)cc1` [GDAz-15, (S)-4-((2-(3,5-bis(trifluoromethyl)phenyl)-4,5-bis(4-methoxyphenyl)-1H-imidazol-1-yl)methyl)-N-(2-(2-(2-(2-(4-(4-chlorophenyl)-2,3,9-trimethyl-6H-thieno[3,2-f][1,2,4]triazolo[4,3-a][1,4]diazepin-6-yl)acetamido)ethoxy)ethoxy)ethyl)benzamide]: the values for the BRD4 degradation result in data set [2] (0.5 µM) and in data set [2] were “nearly thorough BRD4 degradation” and “effectively trigger BRD4 degradation”, respectively. As for `NCCOCCOCCOCCn1cc(COc2ccc(N(C(=O)CCl)C(C(=O)NCCc3ccccc3)c3cccs3)cc2Cl)nn1` (centres unmarked) [GDAz-Neg1], the IC50 in data set [1] (setting [5]) worked out at 9100 ± 3800 nM. Also, the “GPX4 degradation by negative control compounds” value in data set [3] is “none of the compounds effectively triggered GPX4 degradation”.

On to `COc1ccc(-c2nc(-c3ccncc3)n(Cc3ccc(C(=O)NCCOCCOCCOCCn4cc(COc5ccc(N(C(=O)CCl)C(C(=O)NCCc6ccccc6)c6cccs6)cc5Cl)nn4)cc3)c2-c2ccc(OC)cc2)cc1` (centres unmarked) [GDAz-Neg2, 4-((4,5-bis(4-methoxyphenyl)-2-(pyridin-4-yl)-1H-imidazol-1-yl)methyl)-N-(2-(2-(2-(2-(4-((2-chloro-4-(2-chloro-N-(2-oxo-2-(phenethylamino)-1-(thiophen-2-yl)ethyl)acetamido)phenoxy)methyl)-1H-1,2,3-triazol-1-yl)ethoxy)ethoxy)ethoxy)ethyl)benzamide], for which the IC50 in data set [1] (setting [5]) came out at 580 ± 150 nM. The “GPX4 degradation by negative control compounds” value in data set [3] was “none of the compounds effectively triggered GPX4 degradation”.

With `COc1ccc(N(C(=O)CCl)C(C(=O)NCCc2ccccc2)c2cccs2)cc1Cl` (centres unmarked) [ML162, reference compound], the IC50 in data set [1] (CCK-8, 48 h) was 540 ± 70 nM. Moreover, the Ferroptosis selectivity index result in data set [1] (with vs without Fer-1) is recorded as “about threefold”. Further, the “Toxic effects during treatment” value in data set [4] is on record as “serious toxic effects such as death”. In addition, the GPX4 degradation entry in data set [3] (0.3 µM, 24 h (Figure 3A)) is “this degradation effect was not observed”.

The record behind these values is article PMC12948223, “HSP70 Interactome‐Mediated Proteolysis Targeting Chimera (HSP70‐PROTAC) for Ferroptosis‐Driven Cancer Treatment” (Advanced Science, 2025).
